Test results as given in patent publication US10035780B2, “Quinazoline scaffold based compounds, pharmaceutical compositions and methods of use thereof” (TECHNION RESEARCH & DEVELOPMENT FOUNDATION LTD., priority 2014, dated 2018).
“Also recorded” adds a separate entry of the source.

Legend:
U118MG cells = test: Protection against cell death induced by glutamate in U118MG cell culture; assay type: cell-based, human; conditions: for Protection against glutamate-induced cell death: cell culture, grade in words; for lethal effects of compound at high concentration: 100 μM compound alone; for protection against cell death induced by glutamate: U118MG cells, 35 mM glutamate, compound 1-100 μM
Experimental: (§1) Cell cultures of various human glial type cell lines (T98G, U87MG, A172, U118MG), as well as human neuronal type cell lines SH-SY 5Y and Be(2)-C were used to test the new compounds. In addition, the rat glioma cell line C6 was used. PC12 cells originating from rats were used as another cell line displaying neuronal characteristics. The applicants also have produced, by genetic manipulation, a modified rat C6 glial cell strain and a modified human U118MG glial type cell strain, both under-expressing the TSPO, which allows to study TSPO specific effects, including of the compounds of the invention, which can be done according to methods described previously (Weisinger et al. Biochemistry. 2004; 43:12315-21; Levin et al. 2005; Zeno et al., 2009).
The protective capabilities of the compounds of the invention and involvement of the TSPO were tested in cell culture, using cell lines of glial and neuronal type, cultured and testing according to standard methods (Kugler et al. 2008; Zeno et al. 2009; Dadon-Nachum et al. Stem Cell Rev. 2011; 7:664-71). Furthermore, primary cell cultures are also used (Banker, G. et al. Culturing Nerve Cells, 2nd Edition, The MIT Press (1998). Treatments included: (1) exposure to glutamate (35 mM), Abeta(1-42), NH4Cl, CoCl2, and nitric oxide (NO) donors, in order to mimic particular aspects of neurodegeneration; (2) treatment with the novel compounds and with traditional TSPO ligands as comparative treatment; and (3) TSPO knockdown by genetic manipulation.
Techniques and parameters assayed are summarized here: Total protein levels (Bradford. Anal Biochem. 1976; 72:248-54); TSPO ligand binding assays (Kugler et al. 2008; Levin et al. 2005; Danovich et al. Eur Neuropsychopharmacol. 2008; 18:24-33) cell death, including apoptosis and necrosis and related molecular biological processes (Soustiel et al. Neuropathol Appl Neurobiol. 2008; 34:412-23; Soustiel et al. Exp Neurol. 2008; 214:201-8; Zeno et al. 2009); mitochondrial transmembrane potential collapse (Chelli et al. Biochem Pharmacol. 2004; 68:125-34; Kugler et al. 2008; Zeno et al., 2009; Shargorodsky et al. Apoptosis. 2012; 17:647-65), reactive oxygen species (ROS) generation as a measure of oxidative stress (Veenman et al. 2008; Zeno et al. 2009); TSPO knockdown (Levin et al. 2005; Zeno et al. 2009); expression levels of mitochondrial TSPO and associated proteins (Veenman et al. 2002; Levin et al. 2005; Veenman et al. 2008); gene expression with RT-PCR and microarray analysis (Bode et al. 2012; Veenman et al. 2012). Parameters of inflammation, immune response, migration, and the cell cycle are also tested. All these approaches can also be applied for quality control of the compounds.
The compounds of the invention protect against cell death induced by glutamate in cell culture of U118MG cells of astrocytic origin (FIGS. 1, 2, 3 and 8) or SH SY 6Y cells of neuronal origin (FIG. 4). […] In the control group, 35 mM of glutamate killed ˜60% of the cells.
The experimental setup is explained using FIG. 8B as an example: • 1. Control: Cell death levels are taken as 0% • 2. Glu: Cell death levels induced by glutamate are over 50% • 3. […] Glu+Cpd 5: When Cpd 5 is given as a treatment to counteract cell death induced by glutamate, increasing concentrations of Cpd 5 reduce cell death levels from over 50% to less than 5%.

TSPO = TSPO (Homo sapiens (Human), UniProt P30536); assay type: binding; conditions: displacement of [3H]PK 11195 from TSPO
Chain of TSPO (P30536 whole entry): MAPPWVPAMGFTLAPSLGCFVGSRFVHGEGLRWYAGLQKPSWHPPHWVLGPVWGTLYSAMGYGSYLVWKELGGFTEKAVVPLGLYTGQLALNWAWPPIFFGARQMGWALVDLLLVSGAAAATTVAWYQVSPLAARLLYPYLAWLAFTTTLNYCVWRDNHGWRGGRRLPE
Experimental: Briefly, the assay utilizes radioactive standard ligand [^3H] PK 11195 (1-(2-chlorophenyl)-N-methyl-N-(1-methyl-propyl)-3 isoquinolinecarboxamide), and measures the ability of the compounds of the invention to displace standard ligand in binding to TSPO. Total radioactive binding was determined by measuring the radioactivity of the radioactive ligand-receptor complex, obtained in the reaction of radioactive standard with the TSPO. Radioactive standard and the examined compound were added to the TSPO and after some incubation time the radioactivity of the resulting ligand-receptor complexes was measured with the help of a […]. This radioactivity indicates the binding of the radioactive standard to TSPO. […] This can be expressed as the half maximal inhibitory concentration (IC50), which is a measure of the effectiveness of a compound in inhibiting biological or biochemical function, in this case inhibiting binding of standard radioactive ligand binding to the TSPO. A derivative of the IC50 is the Ki, which is the calculated binding affinity of the novel compound to the TSPO.
Binding to TSPO was evaluated using a [^3H]PK 11195 radio-assay, as described above.

SH SY 6Y cells = test: Protection of SH SY 6Y neuronal cells against lethal effects of glutamate; assay type: cell-based, human
Experimental: as §1
The protective capabilities of the compounds of the invention and involvement of the TSPO were tested in cell culture, using cell lines of glial and neuronal type, cultured and testing according to standard methods (Kugler et al. 2008; Zeno et al. 2009; Dadon-Nachum et al. Stem Cell Rev. 2011; 7:664-71). […]

R6-2 mice [1] = test: Incidence of tremor in R6-2 mice; assay type: in vivo, mouse
From the text: (§2) Apart from the behavioral experiments, mice were observed daily, and the day of death was noted. Behavioral experiments included distance covered in an open field apparatus, and tremor measurements.
To assay incidence of tremor in R6-2 mice of the experiments for this invention, the StartleMonitor of Kinder Scientific (Poway, Calif.), with specific software to assay and present force pressure changes in newtons, was used.

R6-2 mice [2] = test: Lifespan of R6-2 mice, transgenic model for Huntington Disease; assay type: in vivo, mouse; conditions: for effect on lifespan: daily s.c. injections 5 days a week from week 5, vs DMSO and saline
From the text: For the assays described herein systemic injections of kainic in rats were applied and also contusion (Veenman et al. 2002; Soustiel et al. Neuropathol Appl Neurobiol. 2008; Soustiel et al. Exp Neurol. 2008). These models present very well defined cell death in the brain. Cell death in the brain is the major pathological characteristic of progressing neurodegeneration common to brain diseases. As the compounds of the present invention are designed to prevent cell death in the brain as a consequence of disease and progressing brain damage after injury, including behavioral impairments, animal models displaying cell death in the brain are the models of choice for displaying the protective capabilities of the compounds of the invention. For these reasons the R6-2 model for Huntington Disease was chosen to test the effectiveness of Compound 1 and to compare the effectiveness of Compound 1 with those of the compound of U.S. Pat. No. 8,541,428 (Cpd A) and with the classical TSPO ligand PK 11195, as well as other compounds disclosed herein. Compounds 5 and 6 were also tested in the same R6-2 model.
R6-2 is a transgenic mouse model for Huntington Disease. Huntington Disease in humans is a hereditary neurodegenerative disease affecting motor performance and finally leading to death of the patients having the disease. R6-2 mice (˜120 CAG repeats B6CBA-Tg(HDexon1)62 Gpb/3J) mice were used for the experiments described below. For this purpose, mice obtained from the Jackson Laboratory (ME) were bred. In particular: males genotype: Hemizygous for Tg(HDexon1)62 Gpb, and females from the wildtype background strain B6CBAF1/J were bred according to the protocol of Jackson Laboratory. The male heterozygote offspring (R6-2 mice) were used for determining life span and motor activity, with and without drug treatment. Drug treatment consisted of daily (5 continuous days a week) subcutaneous injections of mice with 20 μl of: saline (sham control), vehicle DMSO (vehicle control), classic TSPO ligand PK 11195 (15 mg/kg), prior art Compound A (15 mg/kg), Compound 1 (15 mg/kg), and compound 1 (7.5 mg/kg). Drug treatment started on week 5 after birth. Quantities were used according to previous studies regarding TSPO ligands.
as §2
R6-2 mice were used as previously described in Example 5. In one experiment, treatment consisted of daily (5 continuous days per week) subcutaneous injections of mice with 20 μl of vehicle DMSO (control, n=10) and Compound 6 (7.5 mg/kg, n=12). In a separate experiment, compound 5 (7.5 mg/kg, n=5) was tested, compared to DMSO control (n=5).

| Structure (SMILES) | Protection against glutamate-induced cell death (U118MG cells) | Ki (TSPO) | protection against lethal effects of glutamate (SH SY 6Y cells) | lethal effects of compound at high concentration (U118MG cells; halogenated vs unhalogenated analog) | lethal effects of compound at high concentration (U118MG cells; halogenated vs unhalogenated analog, listed as Cpd 6) | protection against cell death induced by glutamate (U118MG cells) | protection against cell death induced by glutamate (U118MG cells; listed as compound 6) | cell death effect of glutamate at high compound concentration (U118MG cells; glutamate plus 100 μM compound, halogenated vs unhalogenated analog) | cells killed by glutamate (U118MG cells; glutamate plus 100 μM compound, glutamate alone kills 50-60%) | incidence of tremor activity (R6-2 mice [1]) | week until which 50% of the mice were still alive (R6-2 mice [2]; 7.5 mg/kg s.c., 50% of DMSO mice died before 10th week) | effect on lifespan (R6-2 mice [2]) | effect on lifespan (R6-2 mice [2]; listed as compound 6) |
| --- | --- | --- | --- | --- | --- | --- | --- | --- | --- | --- | --- | --- | --- |
| CCN(CC)C(=O)Oc1nc(-c2ccc(Br)cc2)nc2ccccc12 [Compound 4, 2-(4-bromophenyl)quinazolin-4-yl diethylcarbamate] | Good | ~45 nM | protects neuronal cells | – | – | – | – | – | – | – | – | – | – |
| CCN(C)C(=O)Oc1nc(-c2ccccc2Cl)nc2ccccc12 [Compound 6, 2-(2-chlorophenyl)quinazolin-4-yl ethyl(methyl)carbamate] | Excellent | ~60 nM | – | reduces lethal effects | reduces cell death effects | protect better and more consistently; also recorded: improves protection | superior over compound 1 | reduces cell death effect of glutamate in cultures even further | 5% | tremor reducing effects; also recorded: reduced the incidence of tremor activity | 12 week | increase the average lifespan; also recorded: extends the life span | robust lifespan enhancing |
